Activity calls are given as the source filed them. The rule behind the calls is not given here.
Experiments:
RAW264.7 [1] = experiment: Antiinflammatory activity against LPS-stimulated […] at 10 uM after 24 hrs by ELISA relative to control; format: functional; settings: RAW264.7, 24 h
RAW264.7 [2] = experiment: Cytotoxicity against […] assessed as effect on cell viability at 10 uM after 2 hrs by MTT assay; format: cell-based; settings: raw264.7, 2 h
Splenocyte [3] = experiment: Antiinflammatory activity against LPS-stimulated splenocytes isolated from thioglycolate-stimulated C57BL/6 mouse at 10 uM after 24 hrs by ELISA relative to control; format: functional, cell-based
[4] = Cytotoxicity against splenocytes isolated from thioglycolate-stimulated C57BL/6 mouse at 10 uM after 2 hrs by MTT assay; format: cell-based; settings: splenocyte
[5] = Toxicity in LPS-stimulated splenocytes isolated from thioglycolate-stimulated C57BL/6 mouse assessed as decrease in live cells at 10 uM after 24 hrs using propidium iodide-staining by FACS analysis; format: cell-based; settings: splenocyte
[6] = Toxicity in LPS-stimulated splenocytes isolated from thioglycolate-stimulated C57BL/6 mouse assessed as decrease in live cells at 10 uM after 48 hrs using propidium iodide-staining by FACS analysis; format: cell-based; settings: splenocyte
RAW264.7 [7] = experiment: Antiinflammatory activity against LPS-stimulated […] at 100 uM after 24 hrs by ELISA relative to control; format: functional; settings: RAW264.7, 24 h
RAW264.7 [8] = experiment: Cytotoxicity against […] assessed as effect on cell viability at 100 uM after 2 hrs by MTT assay; format: cell-based; settings: raw264.7, 2 h
Splenocyte [9] = experiment: Antiinflammatory activity against LPS-stimulated splenocytes isolated from thioglycolate-stimulated C57BL/6 mouse at 10 to 100 uM after 24 hrs by ELISA relative to control; format: functional, cell-based
[10] = Cytotoxicity against splenocytes isolated from thioglycolate-stimulated C57BL/6 mouse at 10 to 100 uM after 2 hrs by MTT assay; format: cell-based; settings: splenocyte
[11] = Cytotoxicity against LPS-stimulated splenocytes isolated from thioglycolate-stimulated C57BL/6 mouse assessed as alterations in forward and side scattering distribution for splenocytes using propidium iodide-staining after 24 hrs by FACS analysis; format: cell-based; settings: splenocyte
[12] = Cytotoxicity against LPS-stimulated splenocytes isolated from thioglycolate-stimulated C57BL/6 mouse assessed as alterations in forward and side scattering distribution for splenocytes using propidium iodide-staining after 48 hrs by FACS analysis; format: cell-based; settings: splenocyte
[13] = Toxicity in LPS-stimulated splenocytes cells isolated from thioglycolate-stimulated C57BL/6 mouse assessed as decrease in live cells at 100 uM after 48 hrs using propidium iodide-staining by FACS analysis; format: cell-based; settings: splenocyte
RAW264.7 [14] = experiment: Toxicity in LPS-stimulated […] assessed as decrease in live cells at 100 uM using propidium iodide-staining by FACS analysis; format: cell-based; settings: raw264.7, 100 µM
[15] = target: Disintegrin and metalloproteinase domain-containing protein 17 (Homo sapiens) (UniProt P78536); experiment: Inhibition of recombinant TACE using Mca-P-L-A-Q-A-V-Dpa-R-S-S-S-R-NH2 as substrate at 1 to 100 uM after 3 hrs by fluorescence assay
Sequence of Disintegrin and metalloproteinase domain-containing protein 17 (Homo sapiens) (P78536 whole entry, the tested form may be a part): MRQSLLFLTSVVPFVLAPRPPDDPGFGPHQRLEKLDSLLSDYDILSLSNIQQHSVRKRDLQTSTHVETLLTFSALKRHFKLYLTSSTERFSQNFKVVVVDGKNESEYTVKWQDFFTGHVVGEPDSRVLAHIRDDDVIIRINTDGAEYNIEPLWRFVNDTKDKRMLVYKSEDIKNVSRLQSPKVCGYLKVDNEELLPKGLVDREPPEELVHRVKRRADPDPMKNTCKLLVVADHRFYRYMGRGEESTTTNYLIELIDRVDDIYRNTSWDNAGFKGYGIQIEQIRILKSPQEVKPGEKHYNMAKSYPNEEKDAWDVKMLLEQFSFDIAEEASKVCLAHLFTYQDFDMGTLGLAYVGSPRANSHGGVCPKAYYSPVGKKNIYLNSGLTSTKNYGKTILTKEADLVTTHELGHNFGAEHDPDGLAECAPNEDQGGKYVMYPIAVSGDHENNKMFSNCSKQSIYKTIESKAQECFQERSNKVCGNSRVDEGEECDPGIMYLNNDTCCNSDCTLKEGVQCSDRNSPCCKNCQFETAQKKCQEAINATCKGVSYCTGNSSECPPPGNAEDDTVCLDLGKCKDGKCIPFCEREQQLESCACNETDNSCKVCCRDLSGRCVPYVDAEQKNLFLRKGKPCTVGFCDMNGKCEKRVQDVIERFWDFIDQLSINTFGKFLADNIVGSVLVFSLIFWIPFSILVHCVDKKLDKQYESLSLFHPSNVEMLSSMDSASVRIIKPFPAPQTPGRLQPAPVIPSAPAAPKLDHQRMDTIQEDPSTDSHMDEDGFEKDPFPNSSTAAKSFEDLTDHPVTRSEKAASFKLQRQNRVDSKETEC

[16] = Antiinflammatory activity against LPS-stimulated splenocytes cells isolated from thioglycolate-stimulated C57BL/6 mouse assessed as reduction of TNFalpha mRNA level at 100 to 200 uM after 24 hrs by RT-PCR; format: functional, Splenocyte
[17] = Toxicity in LPS-stimulated splenocytes cells isolated from thioglycolate-stimulated C57BL/6 mouse assessed as decrease in live cells at 100 uM after 24 hrs using propidium iodide-staining by FACS analysis; format: cell-based; settings: splenocyte

SMILES: CCCC1O[C@@H]2C[C@H]3[C@@H]4CCC5=CC(=O)C=C[C@]5(C)[C@H]4[C@@H](O)C[C@]3(C)[C@]2(C(=O)CO)O1 (stereo not given in full) [BUDESONIDE]
- inhibition at 10 µM (RAW264.7 [1]): 60%
- Activity (RAW264.7 [2]): Non-toxic
- inhibition (Splenocyte [3]): Active
- Activity [4]: Non-toxic
- Activity [5]: Toxic
- Activity [6]: Toxic

SMILES: N[C@H]1CCCC[C@H]1NC(=O)P(=O)(O)O (relative stereo)
- inhibition at 100 µM (RAW264.7 [7]): 60%
- Activity (RAW264.7 [8]): Non-toxic
- inhibition (Splenocyte [9]): Active
- Activity [10]: Non-toxic
- Activity [11]: Non-toxic
- Activity [12]: Non-toxic
- Activity [13]: Non-toxic
- Activity (RAW264.7 [14]): Non-toxic
- inhibition [15]: inactive
- inhibition (INH) [16]: 30%
- Activity [17]: Non-toxic

SMILES: O=C(NCCN1CCCC1)P(=O)(O)O
- inhibition at 100 µM (RAW264.7 [7]): 60%
- Activity (RAW264.7 [8]): Non-toxic
- inhibition (Splenocyte [3]): Active
- inhibition (Splenocyte [9]): Active
- Activity [10]: Non-toxic
- Activity [11]: Non-toxic
- Activity [12]: Non-toxic
- Activity [13]: Non-toxic
- Activity (RAW264.7 [14]): Non-toxic
- inhibition [15]: inactive
- inhibition (INH) [16]: 30%
- Activity [17]: Non-toxic

SMILES: O=C(NCCN1CCCCC1)P(=O)(O)O
- inhibition at 100 µM (RAW264.7 [7]): 60%
- Activity (RAW264.7 [8]): Non-toxic
- inhibition (Splenocyte [9]): Active
- Activity [10]: Non-toxic
- Activity [11]: Non-toxic
- Activity [12]: Non-toxic
- Activity [13]: Non-toxic
- Activity (RAW264.7 [14]): Non-toxic
- inhibition [15]: Active
- inhibition (INH) [16]: 30%
- Activity [17]: Non-toxic

Source: ChEMBL document CHEMBL1799958, “Aminoalkylcarbamoylphosphonates reduce TNFα release from activated immune cells” (Bioorg Med Chem Lett, 2010)
